Like-named read-outs stand apart in the source and are kept apart here.
Tests used:
bronchitic patients [1] = settings: cited from earlier work
bronchitic patients [2] = test: Pulmonary function and pro-inflammatory parameters in bronchitic patients after nebulised drug; assay type: in vivo, human; settings: aspirin by nebuliser
Experimental: The study involved 4 patients with a diagnosis of COPD according to the ATS/ERS guidelines (B R Celli et al. Eur. Respir. J. 2004; 23: 932-46), who were smokers or former smokers (≧20 packets a year). The patients were instructed in the use of a peak expiratory flow (PEF) measuring device using a peak flowmeter, and asked to record the PEF measurements in a daily diary. The measurements were performed 3 times a day: immediately after getting up in the morning, before lunch, and at night before going to bed. […] The patients were suitably instructed as to how to perform the PEF measurements, and asked to record the various measurements and any symptoms, whether correlated with the disease or not, in a daily diary. Before beginning treatment with 900 mg lysine acetylsalicylate (equivalent to 500 mg of acetylsalicylic acid) twice a day, morning and evening, administered after measurement of the corresponding PEF, the patients discontinued all pharmacological treatment except for short-acting bronchodilators in accordance with the ATS/ERS guidelines (B R Celli et al. Eur. Respir. J. 2004; 932-46) as first-line of treatment. This basic treatment was continued for 15 days, during which the PEF values were recorded; their mean value was considered as the baseline value. […]

asthma patients = settings: by inhalation, Sestini P. et al. 1999; cited from earlier work
bronchitic patients [3] = settings: indomethacin inhaler; Tamaoki et al.; cited from earlier work
[4] = system: patients with a diagnosis of COPD; test: Peak expiratory flow (PEF) in COPD patients treated by inhalation; assay type: in vivo, human; settings: 900 mg lysine acetylsalicylate (equivalent to 500 mg acetylsalicylic acid) twice a day by inhalation, 30 days, vs 15-day baseline; two patients; similar at all 3 daily measurements
Experimental: The study involved 4 patients with a diagnosis of COPD according to the ATS/ERS guidelines (B R Celli et al. Eur. Respir. J. 2004; 23: 932-46), who were smokers or former smokers (≧20 packets a year). The patients were instructed in the use of a peak expiratory flow (PEF) measuring device using a peak flowmeter, and asked to record the PEF measurements in a daily diary. The measurements were performed 3 times a day: immediately after getting up in the morning, before lunch, and at night before going to bed. At least 3 daily PEF measurements are considered a good method for the measurement of pulmonary function (C A. Holcroft et al., Chest, 2003; 124: 501-10). PEF measurement has also been used, together with other spirometric tests, to evaluate potential COPD drugs (N A. Hanania et al., Chest, 2003; 124: 834-43). The patients were suitably instructed as to how to perform the PEF measurements, and asked to record the various measurements and any symptoms, whether correlated with the disease or not, in a daily diary. […] This basic treatment was continued for 15 days, during which the PEF values were recorded; their mean value was considered as the baseline value. […]

CC(=O)Oc1ccccc1C(=O)O [aspirin, acetylsalicylic acid]
sputum volume (bronchitic patients [1]; aspirin by inhalation, Inoue H et al. 1991): reduces the sputum volume | pulmonary function (bronchitic patients [2]): definite improvement | pulmonary pro-inflammatory parameters (bronchitic patients [2]): reduction | immediate allergen-induced bronchoconstriction (asthma patients): inhibited

COc1ccc2c(c1)c(CC(=O)O)c(C)n2C(=O)c1ccc(Cl)cc1 [indomethacin]
variation in respiratory function (FEV1) (bronchitic patients [3]): did not observe any significant variation | sputum volume (bronchitic patients [1]; indomethacin inhaler, Tamaoki J. et al. 1992): reduction in sputum volume | immediate allergen-induced bronchoconstriction (asthma patients): ineffective

CC(=O)Oc1ccccc1C(=O)O [lysine acetylsalicylate]
mean increase in PEF [4]: 8 to 10 L/min

— patent publication US9132109B2, “Use of non-steroidal anti-inflammatory drugs by inhalation in the treatment of acute and chronic bronchitis” (MEDESTEA RESEARCH & PRODUCTION S.P.A., priority 2005, dated 2015)
